Results taken from patent US20150328249A1, “MODULATION OF MYOFIBER REPAIR BY ANTI-MYOSTATIN STRATEGIES AND/OR PPAR GAMMA LIGANDS, ALONE OR IN COMBINATION WITH STEM CELLS, FOR THE THERAPY OF CRITICAL LIMB ISCHEMIA AND OTHER ISCHEMIC PROCESSES AFFECTING THE SKELETAL MUSCLE” (LOS ANGELES BIOMEDICAL RESEARCH INSTITUTE AT HARBOR-UCLA …, priority 2012, published 2015).

Columns and labels:
db/db diabetic mice = assay: CLI induced by ULFA in db/db diabetic mice, treated with MDSC and/or molsidomine; assay type: in vivo; details: 3 weeks
Protocol: CLI was induced by ULFA in db/db diabetic mice and treated as follows (n=8/group), for studying the effect of a long-acting NO donor, molsidomine: 1) Untreated (UT): vehicle; 2) MDSC (SC): MDSC into gastrocnemius; 3) MDSC-molsidomine (SC+Mol): as #2, and IP molsidomine (5 mg/kg/day); 4) Molsidomine (Mol) as in #3, no MDSC. Non-diabetic non-ULFA untreated (ND-UT) mice were controls.
At 3 weeks after initiating treatment, mortality, leg preservation, and limb loss/motion/ischemia were determined. Stem cell, myogenic, angiogenic, lipofibrosis, and neurogenesis markers were assayed in muscle tissue by quantitative histochemistry and immunohisto-chemistry and western blot.

[1] = tested on: rat models for insulin resistance and T2DM; assay: Low oral dose pioglitazone in rat models for insulin resistance and T2DM; assay type: in vivo

| SMILES | follistatin expression in the skeletal muscle (db/db diabetic mice) | stem cell number, expression of stem cell marker nuclear Oct 4a in the skeletal muscle (db/db diabetic mice; gastrocnemius of ischemic leg, quantitative western blot) | number of central nuclei (early stage of myofiber repair) (db/db diabetic mice; hematoxylin-eosin histochemistry) | fat infiltration in the skeletal muscle (Oil Red O) (db/db diabetic mice; quantitative histochemistry) | fibrosis, collagen deposition in the skeletal muscle (Masson trichrome) (db/db diabetic mice; quantitative histochemistry) | vascular endothelial growth factor (VEGF) expression in the skeletal muscle (angiogenesis) (db/db diabetic mice; quantitative western blot) | vascular endothelium, CD-31 expression in the skeletal muscle (db/db diabetic mice; quantitative western blot) | vascular endothelium, von Willebrandt factor expression in the skeletal muscle (db/db diabetic mice; quantitative western blot) | vascular smooth muscle marker calponin in the skeletal muscle (db/db diabetic mice; quantitative western blot) | side effects ([1]; glycemia-normalizing dose of 12 mg/kg/day) | body weight ([1]; low oral dose 0.6 mg/kg/day) | glycemia ([1]; low oral dose 0.6 mg/kg/day) |
| --- | --- | --- | --- | --- | --- | --- | --- | --- | --- | --- | --- | --- |
| CCOC(=O)[N-]c1cn(N2CCOCC2)n[o+]1 [molsidomine] | decrease | reduced this effect | slightly inhibitory | did not reduce | did not exert this noxious effect | also angiogenic | increase | increase | abolished the effect | – | – | – |
| CCc1ccc(CCOc2ccc(CC3SC(=O)NC3=O)cc2)nc1 (stereo not drawn) [pioglitazone] | – | – | – | – | – | – | – | – | – | obesity and fat infiltration in the tissues | does not exert glycemic control or increase body weight | 250 to 300 mg/dL |
